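Dose response: 5 concentrations. Exposure: 48 h. Format: 96-well plates. Endpoint: linear interpolation; highest concentration if not reached. GI50: concentration for 50% inhibition of growth. Definition used: TGI = concentration required for complete inhibition of growth.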
Legend:
Experiment in all cases: inhibition of tumour cell growth, NCI panel, 48 h
K-562 leukemia = test system: K-562 leukemia
NCI-H226 lung = test system: NCI-H226 lung
EKVX NSCLC = test system: EKVX NSCLC
OVCAR-3 ovarian = test system: OVCAR-3 ovarian
SF-268 CNS = test system: SF-268 CNS
IGROV1 ovarian = test system: IGROV1 ovarian
A498 renal = test system: A498 renal
A549 NSCLC = test system: A549 NSCLC
CCRF-CEM leukemia = test system: CCRF-CEM leukemia
SK-MEL-2 melanoma = test system: SK-MEL-2 melanoma
U251 CNS = test system: U251 CNS
TK-10 renal = test system: TK-10 renal
SN12C renal = test system: SN12C renal
SNB-75 CNS = test system: SNB-75 CNS
SR leukemia = test system: SR leukemia
SNB-19 CNS = test system: SNB-19 CNS
786-0 renal = test system: 786-0 renal
HS 578T breast = test system: HS 578T breast
CAKI-1 renal = test system: CAKI-1 renal
NCI-H460 lung = test system: NCI-H460 lung
OVCAR-8 ovarian = test system: OVCAR-8 ovarian
HOP-62 NSCLC = test system: HOP-62 NSCLC
BT-549 breast = test system: BT-549 breast
HL-60(TB) leukemia = test system: HL-60(TB) leukemia
ACHN renal = test system: ACHN renal
MDA-MB-435 = test system: MDA-MB-435
NCI-H23 lung = test system: NCI-H23 lung
RXF 393 renal = test system: RXF 393 renal
MALME-3M melanoma = test system: MALME-3M melanoma
NCI-H522 lung = test system: NCI-H522 lung
UACC-62 melanoma = test system: UACC-62 melanoma
SK-MEL-5 melanoma = test system: SK-MEL-5 melanoma
HT29 colon = test system: HT29 colon
LOX IMVI melanoma = test system: LOX IMVI melanoma
COLO 205 colon = test system: COLO 205 colon
T-47D breast = test system: T-47D breast
MDA-MB-231 breast = test system: MDA-MB-231 breast
DU-145 prostate = test system: DU-145 prostate
PC-3 prostate = test system: PC-3 prostate
MOLT-4 leukemia = test system: MOLT-4 leukemia
SK-MEL-28 melanoma = test system: SK-MEL-28 melanoma
SW-620 colon = test system: SW-620 colon
KM12 colon = test system: KM12 colon
HCT-15 colon = test system: HCT-15 colon
HOP-92 NSCLC = test system: HOP-92 NSCLC
NCI/ADR-RES ovarian = test system: NCI/ADR-RES ovarian
M14 melanoma = test system: M14 melanoma
HCC-2998 colon = test system: HCC-2998 colon
UACC-257 melanoma = test system: UACC-257 melanoma
SF-539 CNS = test system: SF-539 CNS
RPMI-8226 leukemia = test system: RPMI-8226 leukemia
SK-OV-3 ovarian = test system: SK-OV-3 ovarian
OVCAR-5 ovarian = test system: OVCAR-5 ovarian
MCF7 breast = test system: MCF7 breast
HCT-116 colon = test system: HCT-116 colon
UO-31 renal = test system: UO-31 renal
OVCAR-4 ovarian = test system: OVCAR-4 ovarian
SF-295 CNS = test system: SF-295 CNS

## O=C1C(Cl)=C(Nc2ccccn2)C(=O)c2ccccc21
K-562 leukemia
  GI50: 1.92 µM
  TGI: 5.42 µM
NCI-H226 lung
  GI50: 1.92 µM
  TGI: 5.49 µM
EKVX NSCLC
  GI50: 17.2 µM
  TGI: 49.4 µM
OVCAR-3 ovarian
  GI50: 1.86 µM
  TGI: 3.98 µM
SF-268 CNS
  GI50: 2.74 µM
  TGI: 7.55 µM
IGROV1 ovarian
  GI50: 3.04 µM
  TGI: 8.05 µM
A498 renal
  GI50: 12.9 µM
  TGI: 25.6 µM
A549 NSCLC
  GI50: 9.02 µM
  TGI: 37 µM
CCRF-CEM leukemia
  GI50: 3.79 µM
  TGI: 12.5 µM
SK-MEL-2 melanoma
  GI50: 3.05 µM
  TGI: 6.66 µM
U251 CNS
  GI50: 3.24 µM
  TGI: 11 µM
TK-10 renal
  GI50: 12.9 µM
  TGI: 25.5 µM
SN12C renal
  GI50: 2.33 µM
  TGI: 5.17 µM
SNB-75 CNS
  GI50: 2 µM
  TGI: 4.49 µM
SR leukemia
  GI50: 2.49 µM
  TGI: 5.32 µM
SNB-19 CNS
  GI50: 4.53 µM
  TGI: 16.3 µM
786-0 renal
  GI50: 13.1 µM
  TGI: 26.3 µM
HS 578T breast
  GI50: 3.65 µM
  TGI: > 100 µM
CAKI-1 renal
  GI50: 3.82 µM
  TGI: 18.8 µM
NCI-H460 lung
  GI50: 3.25 µM
  TGI: 11.4 µM
OVCAR-8 ovarian
  GI50: 3.25 µM
  TGI: 13 µM
HOP-62 NSCLC
  GI50: 2.57 µM
  TGI: 6.15 µM
BT-549 breast
  GI50: 2.09 µM
  TGI: 4.58 µM
HL-60(TB) leukemia
  GI50: 2.52 µM
  TGI: 5.83 µM
ACHN renal
  GI50: 3 µM
  TGI: 9.93 µM
MDA-MB-435
  GI50: 2.02 µM
  TGI: 3.96 µM
NCI-H23 lung
  GI50: 2.18 µM
  TGI: 7.4 µM
RXF 393 renal
  GI50: 10.2 µM
  TGI: 21.8 µM
MALME-3M melanoma
  GI50: 1.81 µM
  TGI: 3.65 µM
NCI-H522 lung
  GI50: 1.89 µM
  TGI: 3.69 µM
UACC-62 melanoma
  GI50: 2.1 µM
  TGI: 3.95 µM
SK-MEL-5 melanoma
  GI50: 1.65 µM
  TGI: 3.03 µM
HT29 colon
  GI50: 26.2 µM
  TGI: 62.5 µM
LOX IMVI melanoma
  GI50: 2.04 µM
  TGI: 5.29 µM
COLO 205 colon
  GI50: 3.23 µM
  TGI: 11.4 µM
T-47D breast
  GI50: 3.1 µM
  TGI: 10.2 µM
MDA-MB-231 breast
  GI50: 3.23 µM
  TGI: 16.6 µM
DU-145 prostate
  GI50: 1.94 µM
  TGI: 3.39 µM
PC-3 prostate
  GI50: 2.27 µM
  TGI: 8.35 µM
MOLT-4 leukemia
  GI50: 2.79 µM
  TGI: 6.6 µM
SK-MEL-28 melanoma
  GI50: 2.09 µM
  TGI: 3.92 µM
SW-620 colon
  GI50: 2.29 µM
  TGI: 5.16 µM
KM12 colon
  GI50: 3.45 µM
  TGI: 10.8 µM
HCT-15 colon
  GI50: 3.54 µM
  TGI: > 100 µM
HOP-92 NSCLC
  GI50: 3.17 µM
  TGI: 9.84 µM
NCI/ADR-RES ovarian
  GI50: 3.23 µM
  TGI: 17.2 µM
M14 melanoma
  GI50: 2.07 µM
  TGI: 3.84 µM
HCC-2998 colon
  GI50: 17.8 µM
  TGI: 33.7 µM
UACC-257 melanoma
  GI50: 1.91 µM
  TGI: 3.84 µM
SF-539 CNS
  GI50: 2.07 µM
  TGI: 4.75 µM
RPMI-8226 leukemia
  GI50: 2.15 µM
  TGI: 7.03 µM
SK-OV-3 ovarian
  GI50: 13.9 µM
  TGI: 26.9 µM
OVCAR-5 ovarian
  GI50: 7.42 µM
  TGI: 23.2 µM
MCF7 breast
  GI50: 1.96 µM
  TGI: 4.12 µM
HCT-116 colon
  GI50: 1.95 µM
  TGI: 4.1 µM
UO-31 renal
  GI50: 2.27 µM
  TGI: 7.2 µM

## CN1CCN(CCCOc2ccc3nc(Nc4ccc(C(F)(F)F)c(Cl)c4)ccc3c2)CC1
K-562 leukemia
  GI50: 0.595 µM
  TGI: 2.07 µM
EKVX NSCLC
  GI50: 1.74 µM
  TGI: 3.63 µM
OVCAR-3 ovarian
  GI50: 1.64 µM
  TGI: 3.46 µM
OVCAR-4 ovarian
  GI50: 1.71 µM
  TGI: 4.59 µM
SF-268 CNS
  GI50: 1.66 µM
  TGI: 3.43 µM
IGROV1 ovarian
  GI50: 2.33 µM
  TGI: 5.3 µM
A498 renal
  GI50: 0.932 µM
  TGI: 2.54 µM
A549 NSCLC
  GI50: 1.92 µM
  TGI: 3.48 µM
CCRF-CEM leukemia
  GI50: 1.57 µM
  TGI: 3.64 µM
SK-MEL-2 melanoma
  GI50: 2.44 µM
  TGI: 4.46 µM
U251 CNS
  GI50: 1.46 µM
  TGI: 2.98 µM
TK-10 renal
  GI50: 1.8 µM
  TGI: 3.51 µM
SNB-75 CNS
  GI50: 0.903 µM
  TGI: 2.94 µM
SR leukemia
  GI50: 1.17 µM
  TGI: 4.01 µM
SNB-19 CNS
  GI50: 1.74 µM
  TGI: 3.6 µM
786-0 renal
  GI50: 1.67 µM
  TGI: 3.21 µM
HS 578T breast
  GI50: 1.82 µM
  TGI: 6.1 µM
CAKI-1 renal
  GI50: 1.72 µM
  TGI: 3.82 µM
NCI-H460 lung
  GI50: 1.88 µM
  TGI: 4.14 µM
OVCAR-8 ovarian
  GI50: 2.07 µM
  TGI: 4.64 µM
HOP-62 NSCLC
  GI50: 1.63 µM
  TGI: 3.18 µM
BT-549 breast
  GI50: 1.84 µM
  TGI: 3.53 µM
HL-60(TB) leukemia
  GI50: 1.94 µM
  TGI: 4.01 µM
ACHN renal
  GI50: 1.74 µM
  TGI: 3.31 µM
MDA-MB-435
  GI50: 1.63 µM
  TGI: 3.16 µM
NCI-H23 lung
  GI50: 1.47 µM
  TGI: 3 µM
RXF 393 renal
  GI50: 1.42 µM
  TGI: 3.03 µM
SF-295 CNS
  GI50: 1.67 µM
  TGI: 3.2 µM
NCI-H522 lung
  GI50: 2.02 µM
  TGI: 3.74 µM
UACC-62 melanoma
  GI50: 1.83 µM
  TGI: 3.88 µM
SK-MEL-5 melanoma
  GI50: 1.7 µM
  TGI: 3.18 µM
HT29 colon
  GI50: 0.493 µM
  TGI: 1.87 µM
LOX IMVI melanoma
  GI50: 1.07 µM
  TGI: 2.32 µM
COLO 205 colon
  GI50: 1.7 µM
  TGI: 3.49 µM
T-47D breast
  GI50: 1.62 µM
  TGI: 4.54 µM
MDA-MB-231 breast
  GI50: 1.13 µM
  TGI: 2.75 µM
DU-145 prostate
  GI50: 1.58 µM
  TGI: 3.09 µM
PC-3 prostate
  GI50: 1.68 µM
  TGI: 3.56 µM
MOLT-4 leukemia
  GI50: 1.63 µM
  TGI: 3.91 µM
SK-MEL-28 melanoma
  GI50: 1.88 µM
  TGI: 3.89 µM
SW-620 colon
  GI50: 1.71 µM
  TGI: 3.33 µM
KM12 colon
  GI50: 1.5 µM
  TGI: 3.05 µM
HCT-15 colon
  GI50: 1.14 µM
  TGI: 2.62 µM
HOP-92 NSCLC
  GI50: 1.15 µM
  TGI: 2.94 µM
NCI/ADR-RES ovarian
  GI50: 1.88 µM
  TGI: 5.22 µM
M14 melanoma
  GI50: 1.71 µM
  TGI: 3.32 µM
HCC-2998 colon
  GI50: 1.72 µM
  TGI: 3.26 µM
RPMI-8226 leukemia
  GI50: 1.75 µM
  TGI: 4.12 µM
SK-OV-3 ovarian
  GI50: 1.81 µM
  TGI: 3.49 µM
OVCAR-5 ovarian
  GI50: 1.8 µM
  TGI: 3.75 µM
MCF7 breast
  GI50: 1.37 µM
  TGI: 3.56 µM
HCT-116 colon
  GI50: 1.46 µM
  TGI: 2.94 µM
UO-31 renal
  GI50: 1.72 µM
  TGI: 3.68 µM

— PubChem BioAssay (NCI)
